For 24 compounds, emission maximum results are on record in the Deep4Chem optical property database.

The nature of one series: solvent given as SMILES. The settings on record: in C1CCCCC1.
With `CCC(C)(C)c1ccc(-c2ccc3c(c2)C(CCOC)(CCOC)c2cc4c(cc2-3)C(CCOC)(CCOC)c2cc(-c3ccc(C(C)(C)CC)cc3)ccc2-4)cc1`, the emission maximum came to 390 nm.
Turning to `C[Si](C)(C)c1cccc2c(C#N)cccc12`, the emission maximum is on record as 333 nm.
Same read-out and setting: under `c1ccc2cc(-n3c4ccccc4c4ccccc43)ccc2c1` stands 362 nm.
On the same count and under the same terms, under `CCC(C)(C)c1ccc(-c2ccc3c(c2)C(CCOC)(CCOC)c2cc(C(C)(C)CC)ccc2-3)cc1` stands 360 nm.
The same measure, in the same setting: under `COc1cc(/C=C/c2ccccc2)cc(OC)c1` stands 364 nm; under `CC1=[N+]2C(=C(c3ccc4c(c3)Cc3ccccc3-4)c3ccc(C)n3[B-]2(F)F)C=C1c1cc2n(c1)[B-](F)(F)[N+]1=CC=CC1=C2c1c(C)cc(C)cc1C`, 645 nm.

The same series, now with this note: in C1CCOC1.
Regarding `F[Si](c1c2ccccc2cc2ccccc12)(c1c2ccccc2cc2ccccc12)c1c2ccccc2cc2ccccc12`, the emission maximum stood at 416 nm.
Same read-out and setting: for `CCOC(=O)c1[nH]c(C)c(/C=C/C2=[N+]3C(=C(c4cc(OC)cc(OC)c4)c4c(C)c(I)c(/C=C/c5c(C)[nH]c(C(=O)OCC)c5C)n4[B-]3(F)F)C(C)=C2I)c1C` the value was 713 nm; for `CCn1c2ccccc2c2cc(C#Cc3cc(C#Cc4ccc5c(c4)c4ccccc4n5CC)nc(N4CCCCC4)n3)ccc21`, 445 nm.
In turn, `c1ccc2cc(-n3c4ccccc4c4ccccc43)ccc2c1` yielded an emission maximum of 374 nm.
Same read-out and setting: for `COc1ccc2cc(-c3ccc(C)cc3)c(=O)oc2c1` the value was 424 nm; for `C(=C\c1ccccc1/C=C/c1c2ccccc2cc2ccccc12)/c1ccncc1`, 498 nm; for `COc1ccc(-c2nc3c(c4c2-c2ccccc2CC4)-c2ccccc2CC3)cc1`, 420 nm.

The series is the same for the next values; noted with them: in C1COCCO1.
On to `CCN(CC)c1ccc2cc(/C=C/C3=C4CC/C(=C\c5cc6ccc(N(CC)CC)cc6oc5=O)C4=[O+][B-](F)(F)O3)c(=O)oc2c1`, for which the emission maximum is 675 nm.
Still for that read-out and setting: under `CN1C(=O)/C(=C/c2ccncc2)N=C1c1ccccc1` stands 471 nm; under `COc1ccc(C2=N/C(=C\c3ccccc3)C(=O)O2)cc1OC`, 447 nm.

The same series, now with this note: in CC1CCCO1.
Turning to `c1ccc2c(c1)-c1ccccc1C21c2ccccc2-c2ncccc21`, the emission maximum is reported as 333 nm.

The series is the same for the next values; noted with them: in CC#N.
As for `CCN(CC)c1ccc2cc(/C=C/C3=C4CC/C(=C\c5cc6ccc(N(CC)CC)cc6oc5=O)C4=[O+][B-](F)(F)O3)c(=O)oc2c1`, the emission maximum is given as 758 nm.
As to `N#Cc1ccc(C=C2Oc3cccc(O)c3C2=O)cc1`, the emission maximum was determined as 510 nm.
Same read-out and setting: under `C=Cc1cc2cc3c(cc2oc1=O)OCO3` stands 448 nm; under `CN1C(=O)/C(=C/c2ccncc2)N=C1c1ccccc1`, 475 nm.
The same measure, in the same setting: under `CCCSc1ccc2n1[B-](F)(F)[N+]1=CC=CC1=C2c1ccccc1` stands 585 nm; under `c1ccc2cc(-n3c4ccccc4c4ccccc43)ccc2c1`, 388 nm; under `COc1nc(Nc2ccc3c4c(cccc24)C(=O)c2ccccc2-3)nc(OC)n1`, 554.02 nm.
For the compound `Cn1cc(-c2nc3ccccc3nc2/C=C/N2CCCC2)c2ccccc21`, the emission maximum came out at 556.97 nm.
`C[n+]1ccn(CCCCc2ccc3c(c2)c2ccccc2n3-c2cc(C#N)c(C#N)cc2F)c1` returned an emission maximum of 558 nm.
For `COc1cc(/C=C/c2ccccc2)cc(OC)c1`, the emission maximum is 390 nm.
Same read-out and setting: under `F[B-]1(F)OC(c2ccc3c(c2)Cc2ccccc2-3)=CC(c2ccccc2)=[O+]1` stands 491 nm.
On the same count and under the same terms, for `COc1ccc(-c2nc3c(c4c2-c2ccccc2CC4)-c2ccccc2CC3)cc1` the value was 416 nm.

Staying with this series, now noted: in CC(C)=O.
In turn, `CCN(CC)c1ccc2cc(/C=C/C3=C4CC/C(=C\c5cc6ccc(N(CC)CC)cc6oc5=O)C4=[O+][B-](F)(F)O3)c(=O)oc2c1` had an emission maximum of 734 nm.
In turn, `COc1nc(Nc2ccc3c4c(cccc24)C(=O)c2ccccc2-3)nc(OC)n1` came in with an emission maximum of 533.9 nm.
The same measure, in the same setting: under `Cn1cc(-c2nc3ccccc3nc2/C=C/N2CCCC2)c2ccccc21` stands 465.99 nm.

Staying with this series, now noted: in CC(C)O.
The compound `COc1nc(Nc2ccc3c4c(cccc24)C(=O)c2ccccc2-3)nc(OC)n1` registered an emission maximum of 576.04 nm.
On the same count and under the same terms, for `COc1cc(/C=C/c2ccccc2)cc(OC)c1` the value was 382 nm.

The same series, now with this note: in CCCCCC.
As to `CCCSc1ccc2n1[B-](F)(F)[N+]1=CC=CC1=C2c1ccccc1`, the emission maximum was 588 nm.
As for `COc1ccc2cc(-c3ccc(C)cc3)c(=O)oc2c1`, the emission maximum was 414 nm.
`COc1ccc(-c2nc3c(c4c2-c2ccccc2CC4)-c2ccccc2CC3)cc1` came in with an emission maximum of 408 nm.

Still in this series, the particulars now being: in CCCCOCCCC
In the case of `COc1nc(Nc2ccc3c4c(cccc24)C(=O)c2ccccc2-3)nc(OC)n1`, the emission maximum worked out at 516 nm.
Still for that read-out and setting: for `COc1cc(/C=C/c2ccccc2)cc(OC)c1` the value was 372 nm.

Still in this series, the particulars now being: in CCO.
`CN1/C(=C/C=C(/C=C/C2=[N+](C)c3ccccc3C2(C)C)c2cc(F)cc(F)c2)C(C)(C)c2ccccc21` showed an emission maximum of 661 nm.
Still for that read-out and setting: under `CN1C(=O)/C(=C/c2ccncc2)N=C1c1ccccc1` stands 477 nm; under `c1ccc2cc(-n3c4ccccc4c4ccccc43)ccc2c1`, 379 nm; under `COc1ccc2cc(-c3ccc(C)cc3)c(=O)oc2c1`, 429 nm.
On the same count and under the same terms, for `Cn1cc(-c2nc3ccccc3nc2/C=C/N2CCCC2)c2ccccc21` the value was 548.05 nm.

Still in this series, the particulars now being: in CCOC(C)=O.
For `CCN(CC)c1ccc2cc(/C=C/C3=C4CC/C(=C\c5cc6ccc(N(CC)CC)cc6oc5=O)C4=[O+][B-](F)(F)O3)c(=O)oc2c1`, the emission maximum is 693 nm.
Compound `CN1C(=O)/C(=C/c2ccncc2)N=C1c1ccccc1` showed an emission maximum of 472 nm.
On the same count and under the same terms, for `CCCSc1ccc2n1[B-](F)(F)[N+]1=CC=CC1=C2c1ccccc1` the value was 589 nm; for `CCn1c2ccccc2c2cc(C#Cc3cc(C#Cc4ccc5c(c4)c4ccccc4n5CC)nc(N4CCCCC4)n3)ccc21`, 446 nm; for `c1ccc2cc(-n3c4ccccc4c4ccccc43)ccc2c1`, 372 nm.
The same measure, in the same setting: under `COc1nc(Nc2ccc3c4c(cccc24)C(=O)c2ccccc2-3)nc(OC)n1` stands 523.01 nm; under `COc1cc(/C=C/c2ccccc2)cc(OC)c1`, 382 nm.
Regarding `CC1=[N+]2C(=C(c3ccc4c(c3)Cc3ccccc3-4)c3ccc(C)n3[B-]2(F)F)C=C1c1cc2n(c1)[B-](F)(F)[N+]1=CC=CC1=C2c1c(C)cc(C)cc1C`, the emission maximum was determined as 675 nm.
Same read-out and setting: under `COc1ccc(-c2nc3c(c4c2-c2ccccc2CC4)-c2ccccc2CC3)cc1` stands 425 nm.

Still in this series, the particulars now being: in CCOCC.
For the compound `c1ccc2cc(-n3c4ccccc4c4ccccc43)ccc2c1`, the emission maximum is 368 nm.
Same read-out and setting: under `COc1nc(Nc2ccc3c4c(cccc24)C(=O)c2ccccc2-3)nc(OC)n1` stands 520.02 nm; under `COc1cc(/C=C/c2ccccc2)cc(OC)c1`, 374 nm.
